{"source": "paper PMC5829251", "about": "“NAD^+ analog reveals PARP-1 substrate-blocking mechanism and allosteric communication from catalytic center to DNA-binding domains” (Nature Communications, 2018)", "key": {"full-length PARP-1 WT": {"molecular_target": "T1, full-length PARP-1 WT (Homo sapiens, UniProt P09874)", "T1 construct": "Full-length PARP-1 WT (residues 1–1014) was cloned in pET28 vector; made in house; host or cells: E. coli", "experiment": "DSF, full-length PARP-1 WT with or without DNA", "type": "binding", "conditions": "BAD 1250 μM; for TM: in °C (unit assumed)", "protocol": "(§1) DSF experiments were performed as described, [13] using 5 µM protein, 2.5 µM DNA when indicated and various concentrations of compound (BAD, carba-NAD^+, benzamide, and ADP-ribose) as indicated in Fig. 1 and Fig. 3. Experiments were performed on a Roche LightCycler 480 RT-PCR. Reactions including DNA were performed with a 26- or 28-base pair (bp) unphosphorylated oligonucleotide for PARP-1, a 28-bp 5´-phosphorylated (5´P) oligonucleotide for PARP-2, and a 47-bp oligonucleotide including a central 5´P nick for PARP-3^13 in the following buffer: 25 mM Hepes pH 8.0, 150 mM NaCl, 1 mM EDTA, and 0.1 mM TCEP. Reactions with PARP-3 were conducted at lower ionic strength to allow binding to DNA as described (25 mM Hepes pH 8.0, 50 mM NaCl, 1 mM EDTA and 0.1 mM TCEP)[13]. ΔTM values were calculated by subtracting the TM determined for the protein in the absence of compound from the TM determined in the presence of compound. Experiments were performed in triplicate and a Boltzmann sigmoid was fit to the data to determine the TM values (KaleidaGraph)."}, "[1]": {"molecular_target": "T2, PARP-1 triple mutant E763/D766/D770A (Homo sapiens, UniProt P09874, D766A/D770A/E763A)", "T2 construct": "Full-length PARP-1 WT (residues 1–1014) was cloned in pET28 vector and site-directed mutagenesis was performed; made in house; host or cells: E. coli", "T2 sequence (P09874 whole entry E763A/D766A/D770A, the tested form may be a part)": "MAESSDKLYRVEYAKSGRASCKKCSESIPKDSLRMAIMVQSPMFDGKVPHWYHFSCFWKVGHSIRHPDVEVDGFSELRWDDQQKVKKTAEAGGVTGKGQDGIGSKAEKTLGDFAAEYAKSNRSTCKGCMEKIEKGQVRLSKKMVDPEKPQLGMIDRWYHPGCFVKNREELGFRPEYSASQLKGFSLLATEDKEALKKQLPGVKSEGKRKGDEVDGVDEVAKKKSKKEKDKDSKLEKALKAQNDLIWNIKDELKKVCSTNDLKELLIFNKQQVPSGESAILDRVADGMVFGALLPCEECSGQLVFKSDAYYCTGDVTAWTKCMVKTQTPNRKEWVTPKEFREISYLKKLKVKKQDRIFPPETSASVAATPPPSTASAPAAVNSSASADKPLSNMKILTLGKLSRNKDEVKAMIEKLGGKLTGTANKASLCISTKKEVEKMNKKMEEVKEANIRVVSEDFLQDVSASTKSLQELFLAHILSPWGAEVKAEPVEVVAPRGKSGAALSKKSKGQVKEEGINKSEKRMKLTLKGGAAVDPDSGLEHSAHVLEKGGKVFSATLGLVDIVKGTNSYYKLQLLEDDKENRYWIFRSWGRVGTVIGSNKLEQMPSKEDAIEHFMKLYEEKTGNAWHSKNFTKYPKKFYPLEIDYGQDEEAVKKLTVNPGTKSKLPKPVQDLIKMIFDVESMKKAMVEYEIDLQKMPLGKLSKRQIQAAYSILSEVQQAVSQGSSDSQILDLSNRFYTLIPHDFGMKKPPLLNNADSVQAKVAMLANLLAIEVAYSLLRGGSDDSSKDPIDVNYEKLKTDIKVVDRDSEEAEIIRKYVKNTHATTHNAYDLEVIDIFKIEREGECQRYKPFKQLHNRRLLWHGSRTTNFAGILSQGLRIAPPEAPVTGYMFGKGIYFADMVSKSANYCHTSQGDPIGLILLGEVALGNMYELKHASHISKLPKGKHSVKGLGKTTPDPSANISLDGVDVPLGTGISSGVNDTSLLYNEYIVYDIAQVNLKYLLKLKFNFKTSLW", "experiment": "DSF, full-length PARP-1 E763/D766/D770A", "type": "binding", "conditions": "BAD 1250 μM", "protocol": "as §1"}, "PARP-1 D45A": {"molecular_target": "T3, PARP-1 D45A (Homo sapiens, UniProt P09874, D45A)", "T3 construct": "Full-length PARP-1 WT (residues 1–1014) was cloned in pET28 vector and site-directed mutagenesis was performed; made in house; host or cells: E. coli", "T3 sequence (P09874 whole entry D45A, the tested form may be a part)": "as the sequence (P09874 whole entry E763A/D766A/D770A, the tested form may be a part) above, with D45A, A763E, A766D, A770D counted along it", "experiment": "DSF, full-length PARP-1 D45A with or without DNA", "type": "binding", "conditions": "for TM: Figure 3b, BAD 1250 μM, in °C (unit assumed)", "protocol": "as §1"}, "PARP-1 W246A": {"molecular_target": "T4, PARP-1 W246A (Homo sapiens, UniProt P09874, W246A)", "T4 construct": "Full-length PARP-1 WT (residues 1–1014) was cloned in pET28 vector and site-directed mutagenesis was performed; made in house; host or cells: E. coli", "T4 sequence (P09874 whole entry W246A, the tested form may be a part)": "as the sequence (P09874 whole entry E763A/D766A/D770A, the tested form may be a part) above, with W246A, A763E, A766D, A770D counted along it", "experiment": "DSF, full-length PARP-1 W246A with or without DNA", "type": "binding", "conditions": "for TM: Figure 3b, BAD 1250 μM, in °C (unit assumed)", "protocol": "as §1"}, "PARP-1 K633A": {"molecular_target": "T5, PARP-1 K633A (Homo sapiens, UniProt P09874, K633A)", "T5 construct": "Full-length PARP-1 WT (residues 1–1014) was cloned in pET28 vector and site-directed mutagenesis was performed; made in house; host or cells: E. coli", "T5 sequence (P09874 whole entry K633A, the tested form may be a part)": "as the sequence (P09874 whole entry E763A/D766A/D770A, the tested form may be a part) above, with K633A, A763E, A766D, A770D counted along it", "experiment": "DSF, full-length PARP-1 K633A with or without DNA", "type": "binding", "conditions": "for TM: Figure 3b, BAD 1250 μM, in °C (unit assumed)", "protocol": "as §1"}, "PARP-3": {"molecular_target": "T6, PARP-3 (Homo sapiens, UniProt Q9Y6F1)", "T6 construct": "PARP-3 (isoform b, residues 1–533) was cloned in pDEST17 vector; made in house", "T6 sequence (Q9Y6F1 1-533)": "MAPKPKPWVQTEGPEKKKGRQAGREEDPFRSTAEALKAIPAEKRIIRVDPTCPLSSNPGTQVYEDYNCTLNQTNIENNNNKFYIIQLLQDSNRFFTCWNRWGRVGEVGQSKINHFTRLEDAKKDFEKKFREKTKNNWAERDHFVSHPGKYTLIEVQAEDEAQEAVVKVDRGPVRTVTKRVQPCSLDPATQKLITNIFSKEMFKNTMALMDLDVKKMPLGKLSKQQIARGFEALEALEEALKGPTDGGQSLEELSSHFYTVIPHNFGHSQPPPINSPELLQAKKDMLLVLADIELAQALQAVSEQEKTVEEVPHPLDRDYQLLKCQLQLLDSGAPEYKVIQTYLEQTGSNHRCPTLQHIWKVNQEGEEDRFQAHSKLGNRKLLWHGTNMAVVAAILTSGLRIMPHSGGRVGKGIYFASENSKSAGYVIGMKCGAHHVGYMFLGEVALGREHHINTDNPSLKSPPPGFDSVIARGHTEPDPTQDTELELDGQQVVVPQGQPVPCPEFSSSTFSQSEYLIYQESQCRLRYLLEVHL", "experiment": "DSF, full-length PARP-3 with or without DNA", "type": "binding", "conditions": "for TM: Figure 3c, BAD 1250 μM, in °C (unit assumed)", "protocol": "as §1"}, "Tankyrase 1 CAT": {"molecular_target": "T7, Tankyrase 1 CAT (Homo sapiens, UniProt O95271)", "T7 construct": "Tankyrase 1 CAT (residues 1093–1327) was cloned in pET24; made in house", "T7 sequence (O95271 1093-1327)": "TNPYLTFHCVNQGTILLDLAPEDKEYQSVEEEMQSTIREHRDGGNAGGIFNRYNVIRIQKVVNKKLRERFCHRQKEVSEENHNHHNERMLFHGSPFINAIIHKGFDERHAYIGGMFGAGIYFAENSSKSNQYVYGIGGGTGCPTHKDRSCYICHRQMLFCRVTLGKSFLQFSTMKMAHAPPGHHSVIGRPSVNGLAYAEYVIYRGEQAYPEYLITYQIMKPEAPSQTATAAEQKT", "experiment": "DSF, Tankyrase 1 CAT", "type": "binding", "protocol": "as §1"}, "PARP-1 ΔHD": {"tested_on": "PARP-1 ΔHD", "experiment": "Fluorescence polarization DNA competition assay, PARP-1 ΔHD", "type": "binding, human", "conditions": "40 nM PARP-1 ΔHD, 20 nM labeled DNA, BAD 500 μM", "protocol": "For the DNA competition assay, 40 nM PARP-1 WT, or PARP-1 ΔHD, was incubated with 20 nM of dumbbell DNA with a central nick carrying an internal fluorescent FAM group (5′-GCT GAG C/FAMT/T CTGGTGAAGCTCAGCTCGCGGCAGCTGGTGCTGCCGCGA-3′) for 30 min at RT in 12 mM Hepes pH 8.0, 60 mM KCl, 8 mM MgCl2, 4% glycerol, 5.7 mM beta-mercaptoethanol, 0.05 mg per ml bovine serm albumin with or without BAD or benzamide (500 μM). A competitor unlabeled DNA of the same sequence was added at 100 nM and FP was measured over time on a VictorV plate reader (Perkin Elmer). For the DNA affinity measurement assay, increasing concentrations of PARP-1 WT were incubated for 30 min at RT with 5 nM of dumbbell DNA probe carrying a nick (described above) in the absence or presence of BAD or benzamide (100 μM) in the following buffer: 12 mM Hepes pH 8.0, 250 mM NaCl, 4% glycerol, 5.7 mM beta-mercaptoethanol, 0.05 mg per ml bovine serum albumin."}}, "data": [{"smiles": "NC(=O)c1cccc(C2OC(COP(=O)(O)OP(=O)(O)OCC3OC(n4cnc5c(N)ncnc54)C(O)C3O)C(O)C2O)c1", "note": "(stereo not drawn) [BAD, benzamide adenine dinucleotide]", "values": [{"measurement": "increase in the TM of full-length PARP-1 owing to BAD", "setting": "full-length PARP-1 WT; with or without DNA (2.5 μM)", "result": "observed only with DNA present"}, {"measurement": "TM", "setting": "full-length PARP-1 WT; Figure 3a, WT with DNA (2.5 μM, 26-bp duplex), TM without BAD 44.35", "result": 47.65}, {"measurement": "TM", "setting": "full-length PARP-1 WT; Figure 3a, WT, no DNA, TM without BAD 48.17", "result": 48.19}, {"measurement": "TM", "setting": "full-length PARP-1 WT; Figure 3b, WT with DNA (2.5 μM, 26-bp duplex), TM without BAD 42.85", "result": 45.99}, {"measurement": "TM", "setting": "full-length PARP-1 WT; Figure 3b, WT, no DNA, TM without BAD 47.41", "result": 47.09}, {"measurement": "TM", "setting": "full-length PARP-1 WT; Figure 3c, PARP-1, no DNA, TM without BAD 47.93", "result": 48.15}, {"measurement": "TM", "setting": "full-length PARP-1 WT; Figure 3c, PARP-1 with DNA (2.5 μM, 28-bp duplex), TM without BAD 44.45", "result": 48.03}, {"measurement": "TM", "setting": "[1]; Figure 3a, no DNA, TM without BAD 45.74, in °C (unit assumed)", "result": 50.13}, {"measurement": "TM change in the presence of BAD", "setting": "[1]; did not require the presence of DNA", "result": "increase in TM"}, {"measurement": "TM shift in the presence of BAD and DNA", "setting": "PARP-1 D45A; D45A (Zn1–WGR interface mutation), relative to WT", "result": "substantial reduction in TM shift"}, {"measurement": "TM", "setting": "PARP-1 D45A; D45A with DNA (2.5 μM), TM without BAD 46.77", "result": 46.61}, {"measurement": "TM", "setting": "PARP-1 D45A; D45A, no DNA, TM without BAD 46.20", "result": 46.68}, {"measurement": "TM", "setting": "PARP-1 W246A; W246A with DNA (2.5 μM), TM without BAD 47.45", "result": 47.41}, {"measurement": "TM", "setting": "PARP-1 W246A; W246A, no DNA, TM without BAD 47.24", "result": 47.23}, {"measurement": "TM shift in the presence of BAD and DNA", "setting": "PARP-1 W246A; W246A (Zn1–Zn3 interface mutation), relative to WT", "result": "substantial reduction in TM shift"}, {"measurement": "TM", "setting": "PARP-1 K633A; K633A with DNA (2.5 μM), TM without BAD 44.76", "result": 44.86}, {"measurement": "TM", "setting": "PARP-1 K633A; K633A, no DNA, TM without BAD 45.50", "result": 45.32}, {"measurement": "TM shift in the presence of BAD and DNA", "setting": "PARP-1 K633A; K633A (Zn3–WGR–HD interface mutation), relative to WT", "result": "substantial reduction in TM shift"}, {"measurement": "TM", "setting": "PARP-3; PARP-3, no DNA, TM without BAD 35.81", "result": 35.54}, {"measurement": "TM", "setting": "PARP-3; PARP-3 with DNA (2.5 μM, 47-bp duplex with central 5'P nick), TM without BAD 39.70", "result": 41.02}, {"measurement": "evidence of BAD binding in the DSF assay", "setting": "PARP-3; PARP-3, with or without DNA bearing 5'P", "result": "only showed evidence of BAD binding in the presence of activating DNA"}, {"measurement": "binding to BAD based on the DSF analysis", "setting": "Tankyrase 1 CAT; CAT of tankyrase 1 (no HD)", "result": "capable of binding"}, {"measurement": "TM", "setting": "Tankyrase 1 CAT; Figure 3d, TNK CAT 5 μM, BAD 4 mM, TM without BAD 53.71, in °C (unit assumed)", "result": 57.42}, {"measurement": "release of full-length PARP-1 ΔHD from the labeled DNA", "setting": "PARP-1 ΔHD", "result": "did not prevent the rapid release"}]}]}
